According to patent US7629150B2, “Transformed cell harboring DNA or RNA encoding sugar chain synthesizing agent having β1,3-N-acetylglucosaminyltransferase activity” (Kyowa Hakko Kirin Co., Ltd., priority 2000, dated 2009):

Experiments:
G6sec1 = biological target: T1, G6sec1 (Homo sapiens, UniProt Q9BYG0); assay: GlcNAc β1,3-galactosyltransferase activity measurement; type: biochemical; settings: 2-aminobenzamide-labeled substrate 88 μmol/l; UDP-Gal; 37° C., 16 hours
T1 construct: made in house; host or cells: Sf21 insect cells infected with pVL1393-F2G6sec1-derived recombinant baculovirus
T1 sequence (Q9BYG0 36-378): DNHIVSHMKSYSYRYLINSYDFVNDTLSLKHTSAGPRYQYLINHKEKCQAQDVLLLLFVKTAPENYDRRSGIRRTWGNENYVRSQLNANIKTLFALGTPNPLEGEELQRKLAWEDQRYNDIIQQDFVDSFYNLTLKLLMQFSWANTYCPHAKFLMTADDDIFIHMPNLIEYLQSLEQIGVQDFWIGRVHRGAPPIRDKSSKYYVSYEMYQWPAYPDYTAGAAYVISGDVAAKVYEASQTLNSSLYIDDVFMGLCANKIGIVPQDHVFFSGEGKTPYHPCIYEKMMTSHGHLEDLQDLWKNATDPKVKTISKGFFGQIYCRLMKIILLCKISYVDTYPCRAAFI
Method: (§1) The β1,3-galactosyltransferase activity measurement was carried out according to a conventional method [J. Biol. Chem., 274, 12499-12507 (1999)]. The reaction was carried out at 37° C. for 16 hours in 20 μl of an assay solution [14 mmol/l HEPES (pH 7.4), 75 μmol/l UDP-Gal (manufactured by SIGMA), 11 mmol/l MnCl2, 88 μmol/l sugar chain substrate, the above purified enzyme]. The amount of the enzyme used was the same as the amount used in the measurement of β1,3-N-acetylglucosaminyltransferase. As a substrate, 2-aminobenzamide-labeled GlcNAcβ1-3Galβ1-4GlcNAcβ1-3Galβ1-4GlcNAc (hereinafter referred to as “GlcNAc-2LN”) was used. The sugar chain was prepared by treating 2-aminobenzamide-labeled LN3 with β-galactosidase and thereby removing the terminal galactose residue. Specifically, 100 milli-units of β-galactosidase (manufactured by Seikagaku Corporation) were added to about 60 nmol of 2-aminobenzamide-labeled LN3, the reaction was carried out at 37° C. for 16 hours, and the sugar chain was prepared by inactivating β-galactosidase through its heat treatment at 100° C. for 5 minutes.

G6sec2 = biological target: T2, G6sec2 (Homo sapiens, UniProt Q9BYG0); assay: as above; type: biochemical; settings: 2-aminobenzamide-labeled substrate 88 μmol/l; UDP-Gal; 37° C., 16 hours
T2 construct: made in house; host or cells: Sf21 insect cells infected with pVL1393-F2G6sec2-derived recombinant baculovirus
T2 sequence (Q9BYG0 39-378): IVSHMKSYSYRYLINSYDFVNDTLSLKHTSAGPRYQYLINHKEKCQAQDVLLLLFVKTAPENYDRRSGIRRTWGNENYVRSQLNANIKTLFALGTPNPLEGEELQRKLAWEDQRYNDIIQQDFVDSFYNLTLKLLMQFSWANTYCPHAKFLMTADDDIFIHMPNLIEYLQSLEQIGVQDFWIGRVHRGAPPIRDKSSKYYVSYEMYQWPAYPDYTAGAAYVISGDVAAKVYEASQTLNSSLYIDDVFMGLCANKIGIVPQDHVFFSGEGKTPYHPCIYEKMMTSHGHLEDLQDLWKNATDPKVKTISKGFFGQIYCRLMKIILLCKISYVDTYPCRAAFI
Method: as §1

Substance: GlcNAcβ1-3Galβ1-4GlcNAcβ1-3Galβ1-4GlcNAc [GlcNAc-2LN]
- GlcNAc β1,3-galactosyltransferase activity (G6sec1): did not show
- GlcNAc β1,3-galactosyltransferase activity (G6sec2): did not show
